From patent US6710090B2, “Inhibitory or blocking agents of molecular generating and/or inducing functions” (priority 1994, dated 2004)

Tests used:
[1] = Acute and chronic toxicity, intravenous; assay type: in vivo, rabbit and dog
Description: In order to investigate a toxicity in vivo, the solution which was mixed 50 μl/Kg of Yoshixol with 1 ml of 20% glucose solution was administered intravenously in unanesthetized animals (rabbit and dog). […] Even though intravenous administration alone was done, it may be confirmed that it is safety.

thrombin = thrombin (Homo sapiens, UniProt P00734); assay: Thrombin treated with Yoshixol added in fibrinogen, thromboelastgram; assay type: biochemical; set-up: thrombin (Behlinger Manheim-Yamanouchi Co.) was investigated by electrophoresis; purchased Behlinger Manheim-Yamanouchi Co
Description: Effect of Yoshixol (4 μl) on human blood coagulation and fibrin formation (thrombin was added to fibrinogen) were investigated by thromboelastgram (Hellige GMBH, West Germany). Also, a magnitude of fibrin network which is formed at human blood coagulation was investigated by a scanning electron microscopy. Coagulation of human blood without treatment with Yoshixol was started within 1-2 min so that maximum level of coagulation occurred approximately within 15 min, followed by gradual decrease due to activation of fibrinolytic system. Immediately after thrombin is added on fibrinogen, viscosity of the sample started to increase, reached to a maximum level within 5-6 minutes. This maximum level was maintained for periods of 6 hours which was observed (referred FIG. 3a). However, when Yoshixol (4 μl) was added in 0.4 ml of whole blood or fibrinogen (160 mg/dl), onset time of blood coagulation and fibrin formation was delayed to 4-5 minutes and maximum aggregation time was occurred within 6-8 minutes. Maximum level of coagulation after the treatment was inhibited by 90% of control which level was maintained over 6 hours of investigation (referred FIG. 3b).

mouse hepatoma cells = assay: Anti-cancer effect, cultured mouse hepatoma cells; assay type: cell-based; conditions: compared with keratinocytes treated with Yoshixol
spermatozoa = assay: Inhibitory effect on flagellum motility of spermatozoa; assay type: cell-based, japanese bull
Description: In order to investigate an effect of Yoshixol on a flagellum motility of spermatozoa, the spermatozoa (seed japanese bull ID: Sinmorihide<registration No.Zen-Wa-Kuro1114, lot No.84Y28>) which has been conserved in the liquid nitrogen was thawing at 35° C. After thawing, 1 ml of semen was transferred to Petori-schale (grainer lab. GmHB) and, flagellum motility was observed by a phase contrast microscopy (IMT-2, Olympus Co.) and was recorded by a video film via a collar video camera (CCD-IRIS, Sony Co.) so that wave cycles and speed of the flagellum were analyzed by an original software of dynamic state analyzer. […] However, though a flagellum movement was completely stopped, the rotation of the head which occurs at the centriole (near junction between head and tail) was found during a few 10 seconds. And, a speed of this rotation gradually was decelerated with progress of a time. […] Moreover, from the knowledge that these movements of cells are involved in microfilaments and microtubles which is constricted from the proteins assembly, a morphological change of this spermatozoa due to treatment with Yoshixol was investigated by transmission type (JEM1200, EXII, JEOL, Ltd.) and scanning type (JSM-6000F, JEOL, Ltd.) electron microscopy. The outside of normal flagellum with regular basic structure of 9+2 is enclosed with a cell membrane and, there was the axial filament which structure is related to a movement is observed inside. The axial filament has […] (centrum pair) that exist mainly on the center and nine double tubles that exist in a periphery (circumscription canaliculus). […] But, though morphological aspect as a whole of spermatozoa was not altered by the treatment with Yoshixol, many particles with a size of 10-30 nm on the surface were observed likely to be blowed out, when the surface structure of flagellum was investigated by a magnification. And also, ring formation likely to a doughnut in which region is contributed to the movement was not found and, adhesion of small particles were noticeable (referred FIG. 28). […]

[2] = Stability of solution under light; assay type: physicochemical; conditions: sealed glass tube, stocked under room light, 6 months after the synthesis
Source text: <Stability of Solution Under Light>

[3] = rabbit and dog, 50 μl/Kg intravenously

For `C=C1CC(C)(C)C=CC1=O` [Yoshixol, 4,4-dimethyl-6-methylene-2-cyclohexen-1-one], the “duration of transitional signs after the administration” value [1, 3] was 1 to 2 min, the platelets [1, 3] was “A change in platelets was not observed” and the “pathological findings in the vital organs, macroscopically and microscopically” value ([1]; rabbit and dog, 50 μl/Kg intravenously, after 1 month) was “any pathological findings were not observed”. The abnormal behavior ([1]; rabbit and dog, 50 μl/Kg intravenously, observation period of 2 hours) was “an abnormal behavior was not found”, the abnormal behavior ([1]; rabbit and dog, 50 μl/Kg intravenously, observed over 1 month) was “any abnormal behavior did not found” and the white blood cells ([1]; rabbit and dog, 50 μl/Kg intravenously, recovery to normal level at 1 week) was “increased 3 days after administration”. The “examination of blood, anemia” value ([1]; rabbit and dog, 50 μl/Kg intravenously, recovery to the normal after 1 week) was “hyperchromic anemia at the maximum level occurred 3 days after administration”, the “respiration rate, blood pressure, heart rate and movements of an extremity after injection” value ([1]; unanesthetized rabbit and dog, 50 μl/Kg intravenously in 1 ml 20% glucose solution) was “transitional increase in respiration rate, increase in blood pressure and heart rate and active movements of an extremity (not convulsion)” and the “aggregation reaction on thromboelastgram” value (thrombin) was “any of aggregation reaction was not be found”. The “structure between cells and cellular aspect” value (mouse hepatoma cells) was “observations similar to the above were found”, the velocity of spermatozoa (spermatozoa; 1 μl of Yoshixol added to 1 ml semen, normal 0.3-1.5 mm per second) was “zero” and the flagellum movement (spermatozoa; after 1 μl of Yoshixol was added to 1 ml semen) was “immediately inhibited”. The “morphological aspect as a whole of spermatozoa” value (spermatozoa; electron microscopy after treatment with Yoshixol) was “not altered” and the “Changes in coloring, viscosity and odor” value [2] was “did not change”.
